Laboratory results as given in US6437185B1, “Quaternary ammonium compounds and process for preparing and using same” (Finetex, Inc., priority 1999, dated 2002).

Tests used:
[1] = test system: Epiocular samples (Ocular Tissue model); settings: literature grouping, Kay and Calandra 1962; cited from earlier work
EpiDerm (Skin model) = settings: groupings used to assign irritancy from ET-50; cited from earlier work
[2] = test system: Epiocular samples (Ocular Tissue model); assay: In-vitro Mat Tek ocular irritation protocol (Epiocular, Ocular Tissue model); format: cell-based; settings: for Ocular Results/Classification: tested at 3.0% active
Experimental: Both products were tested at 3.0% active for dermal and ocular irritation by in-vitro Mat Tek Protocols (Skin model and Ocular Tissue model).
Construction of a Dose Response Curve: The extractant solution within each well was pipetted up and down several times to insure that each is well mixed. 200 microliters of each of the mixed extraction solutions was then pipetted into separate wells of a 96 well microtiter plate. A Dynatech MR 4000 Automatic Microplate Reader was used to determine the optical density of each extract at 570 nm. With the absorbance of a negative control defined as 100%, the percent absorbencies of the articles were determined (% viability=100×(OD [article]/OD [negative control]). The calculated percentages directly correlate with the cell metabolism in the Epiocular samples.
Using a semi-log scale, the percent viability (liner “y” axis) was plotted versus the dosing time (log “x” axis). By interpolation, the time at which the viability has dropped to 50% was determined.

Row | Molecule | Irritancy Classification (example substances of the Draize score / Epiocular ET-50 groups) [1] | Expected In vivo Irritancy (example substances of the EpiDerm ET-50 groups) (EpiDerm (Skin model)) | Mildness in toxicology studies (in words) ([2]; 3.0% active, dermal and ocular irritation, in-vitro Mat Tek Protocols) | Ocular Results/Classification ([2]; first table) | Ocular Results/Classification ([2]; second table with the same title)
1 | CCCCCCCCCCCCOS(=O)(=O)[O-].[Na+] [2% Sodium Dodecyl Sulfate, Sodium Dodecyl Sulfate] | Mild (<20.5-9.67) | Moderate (0.5-4) | – | – | –
2 | O=[N+]([O-])O [Conc. Nitric Acid, Nitric Acid] | – | Severe, probably corrosive (<0.5) | – | – | –
3 | N′,N″,N′″-Triethyl, N′,N′,N′″,N′″-Tetramethyl, N″-[(Trioxypropyl)-ω-hydroxycetyl], dipropylene triammonium triethosulfate [FINQUAT ® CT-P] | – | – | milder than FINQUAT® CT | Non-Irritancy (as in Peg 75 Lanolin) | Non-Irritancy (as in Peg 75 Lanolin)
